Results taken from a melting point compilation (Tetko et al.; mined from patent text by program, amines drawn as free bases though some values may be those of a salt).

| Compound | melting point |
| --- | --- |
| O=C1CCC(c2ccc3c(c2)CC(NC(=O)Nc2ccccc2)C3)=NN1 (stereo not given) | 249 to 251 °C |
| COC(=O)Nc1ccc(NC(=O)CBr)c([N+](=O)[O-])c1 | 160 to 162 °C |
| CC(C)Oc1ccc(CCCOc2cc(CCC(=O)O)n(C)n2)c(Oc2ncc(Cl)cc2Cl)c1 | 77 to 78 °C |
| Cc1nc2cnccc2n1-c1ccc(C2=Cc3nccn3-c3cc(Cl)c(Cl)cc3N2C)cc1 | 268 to 270 °C |
| C#CCOc1ccc2cnn(C[C@H](C)NC(=O)OCc3ccccc3)c2c1 | 104 to 106 °C |
| Cc1c2c(nn1-c1ccccc1)c(Cl)nc1ccccc12 | 208 to 209 °C |
| CN(c1ccc(O)cc1)c1cc2ccc(F)cc2c(O)n1 | 249 °C |
| O=C(O)CC1CCN(Cc2ccccc2)C1c1c(Cl)cccc1Cl (stereo not given) | 186 to 188 °C |
| COc1ccc(C2(C#N)CCC(=O)C(C(N)=O)C2)cc1OCCl (stereo not given) | 154 to 155 °C |
| COc1ccc(C(=O)n2c(C)c(Cc3cc(=O)n(-c4cccc(C(F)(F)F)c4)[nH]3)c3cc(OC)ccc32)cc1 | 91 to 94 °C |
| O=C(Nc1ccc(OCC2CCCO2)c([N+](=O)[O-])c1)OCCCl (stereo not given) | 84 to 86 °C |
| Fc1cc(Cl)ccc1-n1nc2c(c1Cl)CCCC2 | 82 to 85 °C |
| NC(=O)N1CCCC2=C1CCc1cc(Cl)ccc12 | 169 to 171 °C |
| CCCS(=O)c1csc(C(=O)OC)c1S(N)(=O)=O (stereo not given) | 131 to 144 °C |
| COc1ccc(-c2cc3ccc(C)cc3[nH]2)cc1 | 220 °C |
| CCCOC1(c2ccc(C)cc2C)N=C(c2ccc(C)cc2C)N=CN1 (stereo not given) | 86 to 88 °C |
| N#C/C(=C\c1ccc(O)c(O)c1)C(=O)NCCCCNC(=O)/C(C#N)=C/c1ccc(O)c(O)c1 | 283 °C |
| CCn1cc(-c2c(-c3ccccc3)nn3ccncc23)ccc1=O | 192 to 193 °C |
| COc1ccc(-c2nc(SC)ncc2-c2ccc(Cl)cc2)cc1 | 127 to 130 °C |
| c1cnn2cnnc2c1 | 140 to 141 °C |
| Cc1cc(NC2=NCCN2C(=O)c2ccccc2)n(C)n1 | 147 to 149 °C |
| CC(C)(O)[C@H](NC(=O)C(Cl)(Cl)Cl)c1ccccc1 | 97 °C |
| CCC(O)(c1ccc(F)cc1)c1ccc(OCCCN2CCN(Cc3ccccc3)CC2)cc1 (stereo not given) | 119 to 121 °C |
| COC(=O)c1cc(C(=O)OC)c(NCCCc2ccccc2)cn1 | 102 to 104 °C |
| COC(=O)C(C(=O)c1ccc(Cc2cn(C)c3ccc(NC(=O)OC4CCCC4)cc23)c(OC)c1)S(=O)(=O)c1ccccc1 (stereo not given) | 65 to 70 °C |

| Compound | melting point |
| --- | --- |
| COC(=O)[C@@H](CCCc1ccc(OCc2nc(-c3ccco3)oc2C)c(OC)c1)OC(N)=O | 110 to 111 °C |
| Cc1nc2cc(NC(=O)c3cc4cc(F)ccc4n3Cc3cccc(F)c3)cnc2s1 | 264 to 265 °C |
| Cc1ccccc1Cn1c(=O)c2c(N3CCN(C)CC3)cc(Cl)cc2n(Cc2ccccc2)c1=O | 92 to 95 °C |
| CC(C)n1nc(-c2sc(NC(=O)CNCc3cccnc3)nc2-c2ccccc2)ccc1=O | 156 to 158 °C |
| CC(CO)(CO)NS(=O)(=O)c1cccc(NC(=O)c2cnn3c(C(F)(F)F)cc(-c4ccc(C(F)(F)F)cc4)nc23)c1 | 248 °C |
| N#Cc1cc(Br)ccc1NC(=O)c1cccc(S(=O)(=O)N2CCOCC2)c1 | 185 to 187 °C |
| Cc1nc(N)sc1S(=O)(=O)NC(C)(CO)CO | 170 °C |
| COc1cc(COc2nc(-c3ccccc3)ncc2C=O)ccc1OCc1nc(-c2ccco2)oc1C | 143 to 144 °C |
| O=C(Nc1ccc(OCCCc2cccnc2)c2ccccc12)c1cc(F)cc(N2CCOCC2)c1 | 64 to 66 °C |
| COC(=O)c1cc(Cl)cc2c1OCC(=O)N2 | 239 to 241 °C |
| CCN1C[C@@H](O)[C@H](Sc2ccccc2Cl)C1 (relative stereo) | 90.5 to 92.5 °C |
| COC(=O)c1nc(Oc2ccccc2)c(Cl)c(N)c1Cl | 88 to 90 °C |
| O=C(Cc1ccc(O)c(Cl)c1)Oc1cc(Cl)c(Cl)cc1Cl | 77 °C |
| CC(C)(C)COc1ccc([N+](=O)[O-])cc1 | 36 °C |
| O=C1CCCC2=C1C(c1ccccc1)C1=C(CCCC1)N2 (stereo not given) | 252 to 254 °C |
| CCCCCCC(=S)SCCCC | 46 to 47 °C |
| CC(=O)CCCCOCCCc1ccc(N2CCCC2)cc1 | 30 to 31 °C |
| CN1CCc2cc(C=O)sc2C(c2ccccc2)C1 (stereo not given) | 88 °C |
| COc1ccccc1Oc1ccc(Br)cc1OC | 58 to 60 °C |
| Fc1ccc(C2(Cn3nc[nH]c3=S)OC2c2ccccc2Cl)cc1F (stereo not given) | 165 °C |
| O=CNN(Cc1ccccc1[N+](=O)[O-])c1ccccc1 | 140 to 142 °C |
| CCOC(=O)CS(=O)(=O)Nc1c(C(C)C)cccc1C(C)C | 114 to 116 °C |
| CN1CCN(c2ccc(N/C=C3\CN=Cc4ccccc43)cc2)CC1 | 245 to 246 °C |
| CCOP(=O)(CCNCc1c(N)c(=O)c1=O)OCC | 130 to 132 °C |
| COc1ccc(S(=O)(=O)Oc2ccc(N3CCNC3=O)cc2)cc1 | 126 to 127 °C |
